Test results from US8114862B2, “TGR5 modulators and methods of use thereof” (Intercept Pharmaceuticals, Inc., priority 2008, dated 2012).
Like-named read-outs stand apart in the source and are kept apart here. Marks after values point to notes of the source that are not given here.

Columns and labels:
hFXR = target: T1, hFXR (Homo sapiens, UniProt Q96RI1); assay: FXR luciferase reporter assay in COS1 cells; format: cell-based
T1 construct: expressed in transfected cells; host or cells: COS1 cells

TGR5 [1] = target: T2, TGR5 (Homo sapiens, UniProt Q8TDU6); assay: CRE-driven luciferase reporter assay in TGR5-transfected CHO cells; format: cell-based; design: host or cells: CHO cells
T2 sequence (Q8TDU6 1-330): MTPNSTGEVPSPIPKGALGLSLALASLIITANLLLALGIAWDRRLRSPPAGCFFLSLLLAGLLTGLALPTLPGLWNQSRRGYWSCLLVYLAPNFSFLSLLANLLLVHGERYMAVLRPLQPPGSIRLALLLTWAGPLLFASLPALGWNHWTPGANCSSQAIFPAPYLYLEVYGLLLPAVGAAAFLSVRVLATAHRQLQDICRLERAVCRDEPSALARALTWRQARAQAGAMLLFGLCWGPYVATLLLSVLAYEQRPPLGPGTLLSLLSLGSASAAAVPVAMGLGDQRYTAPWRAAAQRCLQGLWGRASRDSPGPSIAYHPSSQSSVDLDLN

TGR5 [2] = target: T2, TGR5; assay: TGR5 receptor in vitro assay (Table 1); format: cell-based
human FXR = human FXR (Homo sapiens, UniProt Q96RI1); assay: FRET recruitment of SRC-1 peptide to human FXR, cell-free ELiSA
FXR = target: T3, FXR (Homo sapiens, UniProt Q96RI1); assay: Direct comparison 6-ethyl vs 6-methyl 23-methyl cholic acid: FXR; format: biochemical
T3 sequence (Q96RI1 262-486 limits assumed): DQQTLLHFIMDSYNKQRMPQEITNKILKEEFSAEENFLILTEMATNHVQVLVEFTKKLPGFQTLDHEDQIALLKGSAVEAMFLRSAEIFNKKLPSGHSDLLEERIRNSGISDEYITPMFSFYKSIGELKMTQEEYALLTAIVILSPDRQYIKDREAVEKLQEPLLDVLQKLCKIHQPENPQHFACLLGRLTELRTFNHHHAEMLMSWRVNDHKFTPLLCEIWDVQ

TGR5 [3] = target: T2, TGR5; assay: Direct comparison 6-ethyl vs 6-methyl 23-methyl cholic acid: TGR5; format: cell-based
[4] = Choleretic effect (bile flow) in bile fistula rat, id and iv infusion; format: in vivo; details: 1 (μmol/min)/kg bw over 1 h
[5] = Biliary secretion and metabolism in bile fistula rat, id and iv infusion; details: rat, in vivo, 1 μmol/kg/min
[6] = Previous study of OA tolerability in animals; format: in vivo
Procedure: Therefore, OA was administered at the dose of 50 mg/kg/d in this study.

in vitro = details: human
[7] = values from literature; cited from earlier work
bovine serum albumin = bovine serum albumin (Bos taurus, UniProt P02769); details: values from literature; cited from earlier work
[8] = values from literature; cited from earlier work; remark: listed apart in the source

Chain of bovine serum albumin (P02769 25-607): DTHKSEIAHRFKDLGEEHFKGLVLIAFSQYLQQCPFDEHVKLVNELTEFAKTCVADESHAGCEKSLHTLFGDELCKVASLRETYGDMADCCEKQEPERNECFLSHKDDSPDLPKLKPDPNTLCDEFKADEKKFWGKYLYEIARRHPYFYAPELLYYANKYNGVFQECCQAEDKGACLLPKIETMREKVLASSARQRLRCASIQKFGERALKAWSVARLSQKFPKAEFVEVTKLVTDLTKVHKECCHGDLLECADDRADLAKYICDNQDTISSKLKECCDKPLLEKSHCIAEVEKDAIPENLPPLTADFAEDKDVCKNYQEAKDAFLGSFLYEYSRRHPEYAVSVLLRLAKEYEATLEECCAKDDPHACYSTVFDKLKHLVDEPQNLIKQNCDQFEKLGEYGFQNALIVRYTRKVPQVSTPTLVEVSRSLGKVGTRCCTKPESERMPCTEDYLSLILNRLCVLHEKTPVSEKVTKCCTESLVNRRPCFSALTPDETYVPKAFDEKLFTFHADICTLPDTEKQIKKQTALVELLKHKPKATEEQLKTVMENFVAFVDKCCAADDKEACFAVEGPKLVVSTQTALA
Chain of human FXR (Q96RI1 whole entry): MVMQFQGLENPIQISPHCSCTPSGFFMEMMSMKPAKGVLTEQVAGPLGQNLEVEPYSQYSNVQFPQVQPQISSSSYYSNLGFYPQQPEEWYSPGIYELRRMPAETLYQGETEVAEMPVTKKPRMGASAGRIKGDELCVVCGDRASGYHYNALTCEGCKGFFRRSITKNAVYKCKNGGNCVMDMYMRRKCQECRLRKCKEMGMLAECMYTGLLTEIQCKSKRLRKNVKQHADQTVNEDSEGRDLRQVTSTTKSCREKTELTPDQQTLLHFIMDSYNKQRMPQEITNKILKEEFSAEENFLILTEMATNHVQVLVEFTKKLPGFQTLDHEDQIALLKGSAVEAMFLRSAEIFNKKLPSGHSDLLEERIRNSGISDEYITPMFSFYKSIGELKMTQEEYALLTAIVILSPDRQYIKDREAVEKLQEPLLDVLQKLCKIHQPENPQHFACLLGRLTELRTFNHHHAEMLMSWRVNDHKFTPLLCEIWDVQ
T1 sequence (Q96RI1 whole entry): as above
T1 sequence (P28700 whole entry partner): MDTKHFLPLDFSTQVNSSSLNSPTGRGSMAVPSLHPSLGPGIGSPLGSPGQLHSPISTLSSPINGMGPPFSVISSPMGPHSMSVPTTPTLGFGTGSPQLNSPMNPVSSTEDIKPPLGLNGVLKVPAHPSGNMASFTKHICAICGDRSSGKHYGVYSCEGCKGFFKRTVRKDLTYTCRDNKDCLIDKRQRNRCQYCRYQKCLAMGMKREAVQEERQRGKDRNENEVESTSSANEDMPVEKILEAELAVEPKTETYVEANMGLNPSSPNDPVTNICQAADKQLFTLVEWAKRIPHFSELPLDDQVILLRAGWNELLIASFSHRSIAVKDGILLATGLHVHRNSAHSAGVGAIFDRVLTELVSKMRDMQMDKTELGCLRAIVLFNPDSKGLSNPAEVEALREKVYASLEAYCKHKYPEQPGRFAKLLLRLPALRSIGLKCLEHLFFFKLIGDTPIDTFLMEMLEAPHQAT

For C[C@H]1[C@@H](O)C2C3CC[C@H]([C@H](C)C[C@H](C)C(=O)O)[C@@]3(C)[C@@H](O)CC2[C@@]2(C)CC[C@@H](O)C[C@@H]12 (stereo partly drawn), the “FXR Efficacy” value (hFXR; % of activity vs. 10 μM 6ECDCA) was 0.76%, the EC50 (hFXR; Table 3) was 22.8 µM and the “EC50 ratio (TGR5/FXR)” value (TGR5 [1]) was 0.035. For the same compound, the “TGR5 Efficacy” value (TGR5 [1]; % of activity vs. 10 μM LCA) was 75.6% and the EC50 (TGR5 [1]; Table 3) was 0.8 µM.

In the case of C[C@H]1[C@@H](O)C2C3CC[C@H]([C@H](C)CCC(=O)O)[C@@]3(C)CCC2[C@@]2(C)CC[C@@H](O)C[C@@H]12 (stereo partly drawn) [Compound 6α-MeCDCA], the EC50 (TGR5 [2]) is reported as 0.37 µM, the “TGR5 Data Efficacy” value (TGR5 [2]) is reported as 119% and the EC50 (human FXR) is reported as 0.21 µM. The “FXR Data Efficacy” value (human FXR) was 148%.

Work on C[C@H]1[C@@H](O)[C@@H]2[C@H](C[C@H](O)[C@]3(C)[C@@H]([C@H](C)C[C@H](C)C(=O)O)CC[C@@H]23)[C@@]2(C)CC[C@@H](O)C[C@@H]12 [Ih3, 23(S)-Methyl-6α-methyl-3α,7α,12α-trihydroxy-5β-cholan-24-oic acid] yielded an EC50 (FXR; first experiment, read-out: FXR I exp EC50) of 10 µM, an EC50 (FXR; second experiment, read-out: FXR II exp EC50) of 7.8 µM and an EC50 (TGR5 [3]; first experiment, read-out: TGR5 I exp EC50) of 1.7 µM. For the same compound, the EC50 (TGR5 [3]; second experiment, read-out: TGR5 II exp EC50) was 3 µM.

With CC[C@H]1[C@@H](O)[C@@H]2[C@H](C[C@H](O)[C@]3(C)[C@@H]([C@H](C)C[C@@H](C)C(=O)O)CC[C@@H]23)[C@@]2(C)CC[C@@H](O)C[C@@H]12 [Ii3e, 6α-ethyl-(23R)-methyl-3α,7α,12α trihydroxy-5β-cholan-24-oic acid] the “SV0: maximum bile secretion rate” value ([4]; id infusion) was 81 ± 8 (μL/min)/kg bw, the “SV0: maximum bile secretion rate” value ([4]; iv infusion) was “(90 ± 5) (μL/min)/kg bw” and the fraction unbound at 4 h [5] was 0.68 ± 0.08. It also gave a fraction unbound at 4 h ([5]; iv) of 0.65.

With CC1(C)CC[C@]2(C(=O)O)CC[C@]3(C)C(=CC[C@@H]4[C@@]5(C)CC[C@H](O)C(C)(C)[C@@H]5CC[C@]43C)[C@@H]2C1 [OA, oleanolic acid] the toxicity ([6]; 100 mg/kg/day) was “some signs of toxicity” and the tolerability ([6]; lower dose) was “well tolerated”.

In the case of CN[C@@H]1C[C@H]2O[C@@](C)([C@@H]1OC)n1c3ccccc3c3c4c(c5c6ccccc6n2c5c31)C(=O)NC4 [Staurosporine], the EC50 at 4 h (in vitro) is reported as 15 µM.

In the case of C[C@H](CCC(=O)NCCS(=O)(=O)O)[C@H]1CC[C@H]2[C@@H]3[C@H](O)C[C@@H]4C[C@H](O)CC[C@]4(C)[C@H]3CC[C@]12C [TCDCA], the “LogPA- (1-octanol-water partition coefficient, ionized species)” value [7] is given as 0.9*, the “Albumin Binding” value (bovine serum albumin) is given as 70* % and the “CMC […] Na+” value [8] is given as 3.0* mM.

In the case of C[C@H](CCC(=O)NCCS(=O)(=O)O)[C@H]1CC[C@H]2[C@@H]3[C@@H](O)C[C@@H]4C[C@H](O)CC[C@]4(C)[C@H]3CC[C@]12C [TUDCA], the “LogPA- (1-octanol-water partition coefficient, ionized species)” value [7] is given as 1.1*, the “Albumin Binding” value (bovine serum albumin) is given as 67* % and the “CMC […] Na+” value [8] is given as 2.2* mM.

In the case of CC/C(=C(\c1ccccc1)c1ccc(OCCN(C)C)cc1)c1ccccc1 [Tamoxifen], the EC50 at 4 h (in vitro; HepG2 cells) is reported as 47 µM.
